Experimental data from article PMC12260505, “First-in-Human Phase I/IIa Study of the First-in-Class CDK2/4/6 Inhibitor PF-06873600 Alone or with Endocrine Therapy in Patients with Breast Cancer” (Clinical Cancer Research, 2025).

Assay: Dose-limiting toxicities in dose escalation (modified toxicity probability interval method)
Format: in vivo, human
Protocol: Part 1 included adult patients with HR^+/HER2^− advanced breast cancer or mBC (third- or fourth-line setting), locally recurrent/advanced or metastatic TNBC, or advanced platinum-resistant epithelial ovarian cancer/fallopian tube cancer/primary peritoneal cancer who received oral PF-06873600 at doses of 1 to 50 mg twice daily or oral PF-06873600 plus ET (letrozole or fulvestrant). Primary endpoints for part 1 dose escalation determined safety and tolerability to define dose-limiting toxicities (DLT), estimate the maximum tolerated dose, and select the recommended dose for expansion (RDE). Safety endpoints included adverse events (AE) characterized by type, frequency, severity [as graded by NCI Common Terminology Criteria for Adverse Events (CTCAE) version 4.03], timing, seriousness, and relationship to study therapy. Laboratory abnormalities were characterized by type, frequency, severity (as graded by NCI CTCAE version 4.03), timing, vital sign abnormalities, and heart rate–corrected QT interval (e.g., QTcF). Secondary endpoints included PK, preliminary antitumor activity as assessed using RECIST version 1.1, time-to-event endpoints including objective response rate (ORR), duration of response (DoR), progression-free survival (PFS), time to progression (TTP), and modulation of tumor CDK biomarkers [phosphorylated Rb (pRb), Ki67]. Exploratory endpoints included molecular profiling of tumor and ctDNA and the relationship to clinical outcome.
In part 1A, dose escalation monotherapy, patients received escalating doses of a single-agent immediate release (IR) formulation of PF-06873600, 1 to 50 mg twice daily orally on a continuous basis, with dose escalation following the modified toxicity probability interval method. Seven dose levels were evaluated: 1, 2, 5, 10, 25, 35, and 50 mg. An alternative intermittent dosing regimen (5 days on/2 days off) was also explored at 35 mg twice daily. Part 1B combination dose-finding involved PF-06873600 IR 25 mg twice daily with ET (letrozole or fulvestrant, each administered per standard of care). Letrozole was administered orally once daily together with PF-06873600. No dose adjustment for letrozole was permitted, but dosing interruptions were allowed. Fulvestrant 500 mg was administered intramuscularly on cycle 1 day 1 and day 15, cycle 2 day 1, and then monthly thereafter (±3 days) to accommodate dosing on day 1 of each cycle. No dose adjustment for fulvestrant was permitted. Part 1C evaluated two modified release (MR) formulations of PF-06873600: one in the single-dose setting and the other in the twice-daily setting. A cycle was defined as 28 days, regardless of missed doses or dose delays.
DLT was the primary endpoint of the study, summarized by dose level using the per-protocol analysis set for patients in the dose escalation portion of the study. Efficacy analysis was summarized by dose cohorts for part 2 of the study. For part 1, no formal efficacy analysis was presented. For part 2, tumor response was presented in the form of patient data listings that included, but were not limited to, tumor type, starting dose, tumor response at each visit, and best overall response. In addition, progression date, death date, date of first response, last tumor assessment date, and date of last contact were listed. ORR, PFS, overall survival, TTP, and DoR were summarized and presented as data permitted. For response-based metrics (best overall response, ORR, and DoR), analyses were presented on the basis of confirmed responses. Analyses of PFS and TTP were defined as the time from the date of the first dose. Summaries of the number and percentage of patients with PFS and TTP and data listings by tumor type and dose were generated based on data availability. The 95% confidence intervals (CI) for medians and quartiles were generated based on the Brookmeyer–Crowley method, whereas CIs for the estimated probability of an event at a particular time point were generated using the Greenwood formula. […]

[1] = part 1A 35 mg twice daily, N = 2, DLT-evaluable set
[2] = part 1A 50 mg twice daily, N = 8, DLT-evaluable set

## C[C@@]1(O)CCC[C@H]1n1c(=O)c(C(F)F)cc2cnc(NC3CCN(S(C)(=O)=O)CC3)nc21 [PF-06873600]
25 mg twice daily, single-agent or combination groups
  DLTs at the monotherapy RDE: No DLTs
[1]
  DLT, Cardiac arrest: 0 n (%)
  DLT, Colitis: 0 n (%)
  DLT, Fatigue: 0 n (%)
  DLT, Febrile neutropenia: 0 n (%)
  DLT, Multiple organ dysfunction syndrome: 0 n (%)
  DLT, Neutrophil count decreased: 2 (100.0) n (%)
  DLT, Platelet count decreased: 1 (50.0) n (%)
  DLT, Thrombocytopenia: 0 n (%)
  Patients with any DLTs: 2 (100.0) n (%)
[2]
  DLT, Cardiac arrest: 1 (12.5) n (%)
  DLT, Colitis: 1 (12.5) n (%)
  DLT, Fatigue: 1 (12.5) n (%)
  DLT, Febrile neutropenia: 3 (37.5) n (%)
  DLT, Multiple organ dysfunction syndrome: 1 (12.5) n (%)
  DLT, Neutrophil count decreased: 0 n (%)
  DLT, Platelet count decreased: 0 n (%)
  DLT, Thrombocytopenia: 1 (12.5) n (%)
  Patients with any DLTs: 4 (50.0) n (%)
Part 1A, 42 patients evaluable for DLT
  Patients with DLTs (all treatment-related): 14.3%
single-agent and combination dosing groups
  Recommended dose for expansion (RDE): 25 mg twice daily
